# Laboratory results: PMC11500415, “Chemical inhibition of stomatal differentiation by perturbation of the master-regulatory bHLH heterodimer via an ACT-Like domain” (Nature Communications, 2024)
# Where “and” joins values, the source holds several entries; their conditions need not be identical. Equal entries are not always repeated. Where two headings read alike, the source gives them in different places.
# Target: T1, MUTE_ACTL (Arabidopsis thaliana, UniProt Q9M8K6)
# T1 construct: MUTE-ACTL (114-202); made in house; host or cells: E. coli BL21
# Assay: BLI direct binding
# Design: species or system A. thaliana
# Source text: A. thaliana SCRM (1-494), ΔNSPCH (98-364), MUTE (1-202), ΔNFAMA (190-414), MUTEΔC (1-114), MUTER133A_R134A, MUTEE162A_E163A, MUTER133A_R134A_E162A_E163A, SCRM-ACTL (405-494), MUTE-ACTL (114-202), SPCH-ACTL (285-364), FAMA-ACTL (306-414), MUTE_ACTLR133A_R134A, MUTE_ACTLE162A_E163A, MUTE_ACTLR133A_R134A_E162A_E163A were cloned into pGEX-4T-1 vector with an N-terminal GST tag and a thrombin cleavage sequence. For protein expression, the constructs were transformed into E. coli strain BL21. For each transformant, a single colony was selected and incubated in 10 ml LB liquid media. The overnight-incubated E. coli suspensions were transferred to 1 L LB medium and incubated at 37 °C for around 2 h until the OD600 reached 0.4–0.6. The isopropyl β-D-1-thiogalactopyranoside ([…] of final concentration) was added to the cultures and the strains were incubated at 22 °C for a further 18 h. GST-fused proteins were purified using glutathione agarose resin. The soluble portion of the cell lysate was loaded onto a GST-Sepharose column. Nonspecifically bound proteins were removed by washing the column with 20 mM Tris pH 8.0, 200 mM NaCl. The bound GST-fused protein was eluted with 10 mm glutathione and 20 mM Tris pH 8.0, 200 mM NaCl. The GST-fused proteins were exchanged with phosphate-buffered saline buffer, and then the solution was treated with 50 μg of thrombin for 10–12 h at 16 ^οC. The GST portion of the protein was cleaved during thrombin digestion, and then the whole solution was reloaded onto the glutathione S-transferase column to obtain pure protein. The purified proteins were further purified by gel filtration on a Superdex-200 (GE) column using fast protein liquid chromatography and phosphate buffer (pH 7.2) as the eluent. The purity of the protein was checked by SDS-PAGE. For detailed lists of oligo DNA and plasmid information, see Supplementary Tables 5, 6, respectively.
# The binding affinities of SCRM to MUTE / MUTER133A_R134A / MUTEE162A_E163A / MUTER133A_R134A_E162A_E163A in presence and absence of Stomidazolone (3) and its analogues (AYSJ1059 (5) and AYSJ1061 (6)), and Stomidazolone / AYSJ1059 / AYSJ1061 interactions with GST-tagged SCRM, MUTE, SPCH, FAMA, MUTE ΔACTL, MUTE_ACTL, SCRM_ACTL, SPCH_ACTL and FAMA_ACTL, MUTER133A_134A, MUTEE162A_E163A, MUTER133A_R134A_E162A_E163A were measured using the Octet Red96 system (ForteBio, Pall Life Sciences) following the manufacturer’s protocols. The optical probes coated with anti-GST were first loaded with 500 nM GST tagged proteins before kinetic binding analyses. The experiment was performed in 96-well plates maintained at 30 °C. Each well was loaded with 200 μL reaction volume for the experiment. The binding buffer used in these experiments contained 1× PBS supplemented with 2% DMSO, 0.02% Tween20. […] There was no binding of the analytes to the unloaded probes as shown by the control wells. Binding kinetics to all seven concentrations of the analytes were measured simultaneously using default parameters on the instrument. The data were analyzed using the Octet data analysis software. The association and dissociation curves were fit with the 1:1 homogeneous ligand model. The kobs (observed rate constant) values were used to calculate Kd, with steady-state analysis of the direct binding. See Supplementary Table 3 for details.
# [1] = MUTE_ACTL on Anti-GST sensor, Stomid 3.12 µM, rep-1, rep-2
# [2] = MUTE_ACTL on Anti-GST sensor, Stomid 6.25 µM, rep-1, rep-2
# T1 sequence (Q9M8K6 114-202): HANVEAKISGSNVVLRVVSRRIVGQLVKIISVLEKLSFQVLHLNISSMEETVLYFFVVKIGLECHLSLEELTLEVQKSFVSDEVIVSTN
compound,measurement,setting,value
O=C1C(c2ccccc2)=NC(NS(=O)(=O)c2ccccc2)(c2ccccc2)N1S(=O)(=O)c1ccccc1 (stereo not drawn) [Stomidazolone],Kd,"BLI steady state, MUTE_ACTL, read-out: KD (SS)",13.1 ± 1.3 µM
same,Response,"BLI, GST-MUTE_ACTL on Anti-GST sensor, Stomid 3.12 µM",0.126 and 0.163
same,Response,"BLI, GST-MUTE_ACTL on Anti-GST sensor, Stomid 6.25 µM",0.271 and 0.242
same,Response,"BLI, GST-MUTE_ACTL on Anti-GST sensor, Stomid 12.5 µM",0.425 and 0.391
same,Response,"BLI, GST-MUTE_ACTL on Anti-GST sensor, Stomid 25 µM",0.524 and 0.486
same,Response,"BLI, GST-MUTE_ACTL on Anti-GST sensor, Stomid 50 µM",0.535 and 0.563
same,Response,"BLI, GST-MUTE_ACTL on Anti-GST sensor, Stomid 100 µM",0.611 and 0.632
same,Response,"BLI, GST-MUTE_ACTL on Anti-GST sensor, Stomid 200 µM",0.625 and 0.645
same,RMax,"BLI, sensor at Stomid 3.12 µM",0.132 and 0.165
same,Kd,"BLI, sensor at Stomid 3.12 µM, read-out: KD",11.7 µM
same,RMax,"BLI, sensor at Stomid 6.25 µM",0.28 and 0.245
same,kobs,"BLI, sensor at Stomid 6.25 µM",0.00155 s⁻¹ and 0.00133 s⁻¹
same,kon,"BLI, sensor at Stomid 6.25 µM",4070 M⁻¹ s⁻¹
same,Kd,"BLI, sensor at Stomid 6.25 µM, read-out: KD",11.9 µM
same,RMax,"BLI, sensor at Stomid 12.5 µM",0.435 and 0.4
same,Req/Rmax(%),"BLI, sensor at Stomid 12.5 µM",49% and 87.1%
same,kdis,"BLI, sensor at Stomid 12.5 µM",0.0482 s⁻¹
same,kon,"BLI, sensor at Stomid 12.5 µM",4050 M⁻¹ s⁻¹
same,Kd,"BLI, sensor at Stomid 12.5 µM, read-out: KD",11.9 µM
same,RMax,"BLI, sensor at Stomid 25 µM",0.53 and 0.49
same,Req/Rmax(%),"BLI, sensor at Stomid 25 µM",61.4% and 83.8%
same,kdis,"BLI, sensor at Stomid 25 µM",0.0488 s⁻¹
same,kobs,"BLI, sensor at Stomid 25 µM",0.00162 s⁻¹ and 0.00294 s⁻¹
same,kon,"BLI, sensor at Stomid 25 µM",4070 M⁻¹ s⁻¹
same,Kd,"BLI, sensor at Stomid 25 µM, read-out: KD",11.8 µM and 12 µM
same,RMax,"BLI, sensor at Stomid 50 µM",0.545 and 0.565
same,Req/Rmax(%),"BLI, sensor at Stomid 50 µM",71.3%
same,kdis,"BLI, sensor at Stomid 50 µM",0.0473 s⁻¹
same,kon,"BLI, sensor at Stomid 50 µM",4010 M⁻¹ s⁻¹
same,Kd,"BLI, sensor at Stomid 50 µM, read-out: KD",11.9 µM and 11.8 µM
same,RMax,"BLI, sensor at Stomid 100 µM",0.621 and 0.64
same,Req/Rmax(%),"BLI, sensor at Stomid 100 µM",98.7%
same,kdis,"BLI, sensor at Stomid 100 µM",0.0476 s⁻¹
same,kon,"BLI, sensor at Stomid 100 µM",4080 M⁻¹ s⁻¹
same,Kd,"BLI, sensor at Stomid 100 µM, read-out: KD",12.1 µM and 11.7 µM
same,RMax,"BLI, sensor at Stomid 200 µM",0.63 and 0.655
same,Req/Rmax(%),"BLI, sensor at Stomid 200 µM",100%
same,kdis,"BLI, sensor at Stomid 200 µM",0.0474 s⁻¹
same,kobs,"BLI, sensor at Stomid 200 µM",0.0329 s⁻¹ and 0.0251 s⁻¹
same,kon,"BLI, sensor at Stomid 200 µM",4070 M⁻¹ s⁻¹
same,Kd,"BLI, sensor at Stomid 200 µM, read-out: KD",12 µM and 11.6 µM
same,Kd,"BLI, MUTE_ACTL, read-out: KD",12.2 ± 2.1 µM
same,RMax,[1],0.132 and 0.165
same,Response,[1],0.126 and 0.163
same,Kd,"MUTE_ACTL on Anti-GST sensor, Stomid 3.12 µM, rep-1, rep-2, read-out: KD",11.7 µM
same,RMax,[2],0.28 and 0.245
same,Response,[2],0.271 and 0.242
same,kobs,[2],0.00155 s⁻¹ and 0.00133 s⁻¹
same,kon,[2],4070 M⁻¹ s⁻¹
same,Kd,"MUTE_ACTL on Anti-GST sensor, Stomid 6.25 µM, rep-1, rep-2, read-out: KD",11.9 µM
same,RMax,"MUTE_ACTL on Anti-GST sensor, Stomid 12.5 µM, rep-1, rep-2",0.4 and 0.435
